Common to all, as to assay type: cell-based, human
For one assay, the system named is CCRF-CEM cells. The assay is described as follows: Cellular senescence assay (SA-β-gal). As to conditions: 5 μM, within 48 hours, maintained to 96 hour, FIG. 15A. The protocol: Analysis of senescence-associated β-galactosidase (SA-β-gal) activity was performed using the 96-Well Cellular Senescence Assay Kit (Cell Biolabs, San Diego, Calif.) as per the manufacturer's protocol. In brief, cells were washed with PBS, lysed with cell lysis buffer, and incubated at 37° C. with SA-β-gal substrate for 1 hour. A quantitative Cellular Senescence Assay Kit (SA-β-gal, Fluorometric) (Cell Biolabs, San Diego, Calif.) was used for more quantitative measurement of SA-β-gal activity by flow cytometry. Briefly, control and treated CCRF-CEM cells were incubated with 1× cell pretreatment solution in culture medium for 2 hrs, and the fluorogenic substrate was then directly added into the culture. After 4 hrs, the cells were washed and analyzed by flow cytometry.

Another assay has as its system A375 cells. The assay is described as follows: Western blot of IRAK phosphorylation in A375. Conditions: Pam3CysK4 2.5 μg/ml or flagellin 100 ng/ml, 48 hours, FIG. 22B. The protocol: FIG. 22. Effects of TLR stimulation and cytokines on IRAK phosphorylation in melanoma cells. (A) A375 cells were cultured in the presence of anti-IL-18, anti-CXCL-1, (R&D Systems), anti-IL-1 (BioLegend), or mouse IgG (Sigma-Aldrich) all at 10 μg/ml. Forty-eight hours later the levels of the indicated proteins were determined by western blot. (B) A375 cells, which express p-IRAK-1 and p-IRAK-4, and G361 melanoma cells, which express very low levels of p-IRAK-1 (and express TLR5) were cultured in the presence of TLR1-TLR2 agonist (Pam3CysK4; 2.5 μg/ml) or TLR5 (flagellin; 100 ng/ml; InVivogen). Forty-eight hours later total protein was collected and the levels of the indicated proteins were examined by western blot.
Total cell extracts were prepared from melanoma cells. […] Melanoma tissue arrays were purchased from US Biomax, Inc (Rockville, Md.). For immunohistochemical staining samples were stained with mouse monoclonal anti-human phosphor-IRAK.-4 antibody (Abnova; dilution, 3.5 μg/ml) or normal mouse serum. Tissue histology sections (5-μm-thick) were deparaffinized, hydrated, heated in boiling 10 mmol/L sodium citrate (pH 6.0), for antigen retrieval, for 30 min and washed in Tris buffer. Peroxide blocking was done with 3% […] in methanol at room temperature for 15 min, followed by 10% fetal bovine serum in TBS-t for 30 min at room temperature. Primary antibody incubation was done overnight at 4° C. Secondary antibody incubation with horse anti-mouse (1:200; Vector Laboratories, Burlingame, Calif.) was done for 1 hr, followed by application of diaminobenzidine chromogen for 5 min. The slides were then counterstained with hematoxylin and topped with a coverslip. IHC specimens were analyzed using “quick score” system in which the intensity of the immunohistochemical reaction was scored by multiplying the intensity 1 (weak), 2 (moderate), and 3 (strong) and the proportion of cells staining positively 0 (<10%), 1 (10-25%), 2 (26-50%), 3 (51-75%) or 4 (>75%).
For orientation: Immunoblotting shows a protein as a band on a membrane.

The subject of the next assay is Jurkat. Description: Proliferation (3H-thymidine) of Jurkat. As to conditions: 3H-thymidine uptake, 72 h. From the text: (§1) CCRF-CEM, CEM/C1, CEM/C2, CEM-C7, Jurkat, Loucy, Molt-4, HSB-2, SUP-T1, Hut 78, HH, Hut 102, MO, and H9 T-leukemia and T-lymphoma cell lines were purchased from the American Type Culture Collection (Manassas, Va., USA). All of the cell lines were initially expanded and cryopreserved within one month of receipt. Cells were typically used for 6 months at which time a fresh vial of cryopreserved cells was used. Total T cells from healthy donors were isolated via negative selection followed by positive selection using a CD3+ selection kit (Invitrogen, Carlsbad, Calif.). T cells were isolated from patients with T-ALL bone marrow or peripheral blood samples containing more than 70% leukemia cells using a CD2+ isolation kit (STEMCELL Technologies, Vancouver, Canada). All tissues were collected under institutional IRB-approved protocols and all participants gave written informed assent/consent. For in vitro experiments, T-ALL cells were cultured in AIM-V medium supplemented with 20% human AB serum in the presence of recombinant human stem cell factor (50 ng/mL; Amgen, Thousand Oaks, Calif.), insulin (20 nM; Sigma-Aldrich, St Louis, Mo., USA) and IL-7 (50 ng/mL; R&D Systems, Minneapolis, Minn., USA). In other experiments, protein lysate was collected using the Full Moon Biosystems (Sunnyvale, Calif., USA) buffer prior to protein examination by western blot or protein array.
(§2) Cells were cultured in a 96-well plate (Corning Costar, Corning, N.Y., USA) with various concentrations of TLR ligands 1-9, starting at 10 μg/ml, in a final volume of 200 ul. TLR ligands were diluted 2-fold. Cell lines (25-40×10^3/well) were cultured for 54 hours, whereas fresh patient-derived T-ALL cells (200×10^3/well) were cultured for 30 hours prior to adding [^3H]-thymidine for 18 hours. After this time point, cells were harvested with a Packard Filter-Mate-96 cell harvester (Perkin Elmer, Waltham, Mass., USA) and counted on Packard Top Count-NXT (Perkin Elmer, Waltham, Mass., USA). Results were expressed as average counts per minute (cpm). In some experiments CCRF-CEM cells were pre-treated with TLR1-TLR2 ligand (Pam3CysK4; 2.5 ug/ml) for 48 hrs, washed, and then cultured in the presence of varying concentrations of FBS. Forty-eight hours later, proliferation (±SD) was determined by ^3H-thymidine incorporation. Alternatively, apoptosis was measured by flow cytometry after staining cells with Annexin-V (BD Pharmingen, San Diego, Calif., USA) and propidium iodide (Sigma). Cell number was counted under microscopy by staining cells with trypan blue. […]

Another assay deals with Hut 102. Description: Proliferation (3H-thymidine) of Hut 102. As to conditions: 3H-thymidine uptake, 72 h.
Description: as §1, with “In other experiments, protein lysate was collected using the Full Moon Biosystems (Sunnyvale, Calif., USA) buffer prior to protein examination by western blot or protein array.” left out
as §2, with “TLR ligands were diluted 2-fold. Cell lines (25-40×10^3/well) were cultured for 54 hours, whereas fresh patient-derived T-ALL cells (200×10^3/well) were cultured for 30 hours prior to adding [^3H]-thymidine for 18 hours.” left out, “In some experiments CCRF-CEM cells were pre-treated with TLR1-TLR2 ligand (Pam3CysK4; 2.5 ug/ml) for 48 hrs, washed, and then cultured in the presence of varying concentrations of FBS.” left out

For assay [1], the system named is Primary T-cells Activated. The assay is described as follows: Proliferation (3H-thymidine) of activated primary T-cells.
Description: as §1
Cells were cultured in a 96-well plate (Corning Costar, Corning, N.Y., USA) with various concentrations of TLR ligands 1-9, starting at 10 μg/ml, in a final volume of 200 ul. TLR ligands were diluted 2-fold. Cell lines (25-40×10^3/well) were cultured for 54 hours, whereas fresh patient-derived T-ALL cells (200×10^3/well) were cultured for 30 hours prior to adding [^3H]-thymidine for 18 hours. After this time point, cells were harvested with a Packard Filter-Mate-96 cell harvester (Perkin Elmer, Waltham, Mass., USA) and counted on Packard Top Count-NXT (Perkin Elmer, Waltham, Mass., USA). Results were expressed as average counts per minute (cpm). In some experiments CCRF-CEM cells were pre-treated with TLR1-TLR2 ligand (Pam3CysK4; 2.5 ug/ml) for 48 hrs, washed, and then cultured in the presence of varying concentrations of FBS. Forty-eight hours later, proliferation (±SD) was determined by ^3H-thymidine incorporation. Alternatively, apoptosis was measured by flow cytometry after staining cells with Annexin-V (BD Pharmingen, San Diego, Calif., USA) and propidium iodide (Sigma). Cell number was counted under microscopy by staining cells with trypan blue.
The following TLR ligands were purchased from Invivogen (San Diego, Calif., USA): tripalmitoyl-S-(bis(palmitoyloxy)propyl)-Cys-Ser-(Lys)3-Lys (TLR1-2); Poly I:C (TLR3); ultrapure S. Minnesota Lipopolysaccharide (TLR4); S. typhimurium flagellin (TLR5); FSL-1 (TLR2/6); Imiquimod (TLR7); ssRNA40/Lyovec (TLR8); CpG-ODN 2006 (TLR9).

Consider `O=C(Nc1nc2ccccc2n1CCN1CCOCC1)c1cccc([N+](=O)[O-])c1` [IRAK-1,-4 inhibitor], for which the “increase of SA-β-gal activity” value in the assay on CCRF-CEM cells is reported as “three-fold”.
As to “tripalmitoyl-S-(bis(palmitoyloxy)propyl)-Cys-Ser-(Lys)3-Lys [Pam3Cysk4]”, in the assay on A375 cells, the “p-IRAK-1 or p-IRAK-4 expression levels” value is “remained unchanged”. The “Proliferative effects of TLR ligands” value was “∘” in the assay with Jurkat; “∘” with Hut 102; “+ (enhanced proliferation by 25% or greater)” in assay [1] (Primary T-cells, Activated, 3H-thymidine uptake, 72 h). Besides, the “TLR ligand concentration in parentheses below the symbol” value in assay [1] (Primary T-cells, Activated, no unit in table (μg/ml)) is recorded as “(10)”. For the same molecule, the “effect on proliferation / T-cell expansion (in words)” value in assay [1] (T cells from healthy donors, together with T cell receptor stimulation, FIG. 1A) is on record as “enhanced proliferation”.

Source of the values: patent publication US9464326B2, “Total and phosphorylated IL-1 receptor-associated kinase-1 and IL-1 receptor-associated kinase-4 as a biomarker for cancer progression and chemotherapy resistance” (University of Maryland, Baltimore, priority 2012, dated 2016).
